The record followed here is ChEMBL document CHEMBL1201862, “PubChem BioAssay data set” (2004).

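Five compound concentrations were applied to cells in 96-well plates for 48 hours; endpoints were derived by simple linear interpolation of the resulting dose-response curve. GI50 = concentration required for 50% inhibition of growth.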 The source made the active and inactive calls. Cut-off read from the data, not from the text of the source: active = GI50 up to about 1.1 µM and inactive = higher.

What all share (experiment): growth of human tumour cells (NCI), 48 h
Assay [1] relates to SNB-19.
For assay [2], the system named is NCI-H23.
In assay [3] the test system is Malme-3M.
The subject of assay [4] is EKVX.
Assay [5] relates to HCT-15.
Assay [6] has as its system SR.
Assay [7] deals with Hs-578T.
Assay [8] has as its system OVCAR-5.
Assay [9] deals with HT-29.
Assay [10] has as its system OVCAR-8.
Assay [11] deals with NCI-H226.
For assay [12], the system named is NCI-H460.
Assay [13] has as its system DU-145.
The test system of assay [14] is OVCAR-4.
Assay [15] deals with UACC-62.
The test system of assay [16] is SF-295.
Assay [17] deals with CAKI-1.
Assay [18] concerns SK-MEL-28.

In the case of `CN(C)CCNC(=O)c1ccc(NCCCN(C)CCCNc2ccc3c(=O)n(CCN(C)C)c(=O)n4c5ccccc5c(=O)c2c34)c2c(O)c3ccccc3nc12`, the GI50 in assay [1] is < 10 nM (active); in [2], < 14.6 nM (active); in [3], 27.1 nM (active); in assay [4], 160 nM (active); in assay [5], 15.4 nM; in [6], < 10 nM (active). Moreover, the GI50 is 28.5 nM (active) in [7]; 19.2 nM (active) in [8]; < 10 nM (active) in [9]; < 10 nM (active) in [10]; < 21.4 nM (active) in [11]; < 10 nM (active) in [12]. The GI50 was < 10 nM (active) in assay [13]; < 10 nM (active) in assay [14]; 67.8 nM (active) in assay [15]; < 10 nM (active) in assay [16]; 25.8 nM (active) in assay [17]; 234 nM (active) in [18].
Turning to `CCOC(=O)c1sc2nc(SC)nc3c2c1N=CN3c1ccccc1Cl`, the GI50 in assay [1] was 29400 nM (inactive); in assay [2], 92300 nM (inactive); in assay [3], 35000 nM (inactive); in assay [4], 55300 nM (inactive); in assay [5] it was over 100000 nM; in [6], 26900 nM (inactive). Also, the GI50 was 5580 nM (inactive) in assay [7]; > 100000 nM (inactive) in assay [8]; > 100000 nM (inactive) in assay [9]; 52600 nM (inactive) in assay [10]; > 100000 nM (inactive) in assay [11]; > 100000 nM (inactive) in assay [12]. Also, the GI50 was > 100000 nM (inactive) in assay [13]; 17200 nM (inactive) in [14]; 33000 nM (inactive) in assay [15]; 32700 nM (inactive) in assay [16]; 26200 nM (inactive) in assay [17]; > 100000 nM (inactive) in assay [18].
Consider `C=CC1=C(C)c2cc3[nH]c(c4c5nc(cc6[nH]c(cc1n2)c(C)c6CC)C(C)=C5C(=O)[C@@H]4C(=O)OC)[C@@H](CCC(=O)O)[C@@H]3C`, for which the GI50 in [1] is 4090 nM (inactive); in assay [2] it was 2210 nM (inactive); in assay [3], 12200 nM (inactive); in assay [4] it was 10200 nM (inactive); in assay [5], 2490 nM; in assay [6], 634 nM (active). Besides, the GI50 in assay [7] is 3660 nM (inactive); in [8], 3410 nM (inactive); in [9], 8430 nM (inactive); in assay [10], 3520 nM (inactive); in [11], 6010 nM (inactive); in [12] it was 2810 nM (inactive). For the same molecule, the GI50 in [13] was 33800 nM (inactive); in [14], 2540 nM (inactive); in [15], 2160 nM (inactive); in assay [16] it was 2120 nM (inactive); in assay [17], 9510 nM (inactive); in assay [18], 1640 nM (inactive).
As to `CCC[C@H](C)[C@H]1NC(=O)[C@@H](NC(=O)[C@@H](CC(C)C)N(C)C(=O)C2CCCN2C(=O)[C@H](C)O)[C@@H](C)OC(=O)[C@H](CC(C)C)N(C)C(=O)[C@@H]2CCCN2C(=O)[C@H](CC(C)C)NC(=O)[C@@H](C)C(=O)[C@H](C(C)C)OC(=O)C[C@@H]1O` (some centres not stated), the GI50 in assay [1] is < 2.5 nM (active); in assay [2] it was < 2.5 nM (active); in [3], < 2.5 nM (active); in [4], < 2.5 nM (active); in assay [5], 32.8 nM; in assay [6] it was < 2.5 nM (active). For the same molecule, the GI50 in assay [7], in assay [8], in assay [9], in [10], in assay [11] and in assay [12] was < 2.5 nM (active) throughout. The GI50 is < 2.5 nM (active) in assay [13]; < 2.5 nM (active) in assay [14]; < 2.5 nM (active) in assay [15]; < 2.5 nM (active) in [16]; 16.2 nM (active) in assay [17]; < 2.5 nM (active) in [18].
